This assay concerns the target T1, human apelin receptor (Homo sapiens, UniProt P35414).
T1 construct: host or cells: CHO cells
T1 sequence (P35414 1-380): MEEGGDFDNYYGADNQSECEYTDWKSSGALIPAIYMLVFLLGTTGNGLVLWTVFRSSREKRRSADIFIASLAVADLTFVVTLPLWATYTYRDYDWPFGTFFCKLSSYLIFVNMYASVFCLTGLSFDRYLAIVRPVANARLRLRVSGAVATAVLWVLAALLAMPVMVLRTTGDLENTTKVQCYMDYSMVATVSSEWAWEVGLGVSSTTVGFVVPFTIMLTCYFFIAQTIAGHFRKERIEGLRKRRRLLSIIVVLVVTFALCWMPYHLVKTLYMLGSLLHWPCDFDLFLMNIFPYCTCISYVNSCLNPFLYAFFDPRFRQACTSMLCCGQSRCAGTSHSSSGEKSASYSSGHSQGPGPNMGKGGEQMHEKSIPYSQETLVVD
Kind of assay: Measurement of apelin receptor agonist activity (cell-based assay determining the amount of intracellular cAMP). Particulars: CHO cells stably expressing the human apelin receptor, Forskolin 10 μM, 30 minutes, 100% efficacy = [Pyr1]-apelin-13 0.300 μM, concentration giving 50% efficacy. In short, it runs like this:
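CHO cells stably expressing the receptor were treated for 30 min with compound ([…], 3-fold, 11 points; 0.3% DMSO) together with 10 μM forskolin. cAMP was measured by chemiluminescent lysate assay. Efficacy was scaled from forskolin alone (0%) to 0.300 μM [Pyr1]-apelin-13 plus forskolin (100%), and dose-response curves were fitted.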

The values that follow come from patent publication US11155525B2 (Sanford Burnham Prebys Medical Discovery Institute, priority 2015, dated 2021).

Molecules are shown by their SMILES.

By EC50 is commonly meant the midpoint of the concentration-response curve. A higher EC50 goes with a need for much substance. Take `COc1cccc(OC)c1-n1c(/C=C/C(=O)N2CCC[C@H]2C(=O)O)nnc1-c1ccc(C)o1` [Example 93, 1-{(2E)-3-[4-(2,6-Dimethoxyphenyl)-5-(5-methylfuran-2-yl)-4H-1,2,4-triazol-3-yl]prop-2-enoyl}-L-proline]: the EC50 amounted to 364 nM.
To `COc1cccc(OC)c1-n1c(SCCCC(=O)O)nnc1-c1ccc(C)o1` [Example 22, 4-{[4-(2,6-Dimethoxyphenyl)-5-(5-methylfuran-2-yl)-4H-1,2,4-triazol-3-yl]sulfanyl}butanoic acid] belongs 87 nM; to `COC(=O)c1ccc(-c2nnc(-c3ccc(C)o3)n2-c2c(OC)cccc2OC)cc1` [Example 47, Methyl 4-[4-(2,6-dimethoxyphenyl)-5-(5-methylfuran-2-yl)-4H-1,2,4-triazol-3-yl]benzoate], 419 nM; to `COc1cccc(OC)c1-n1c(-c2ccc(C(=O)O)cc2)nnc1-c1ccc(C)o1` [Example 48, 4-[4-(2,6-Dimethoxyphenyl)-5-(5-methylfuran-2-yl)-4H-1,2,4-triazol-3-yl]benzoic acid], 22 nM.
To `COC(=O)c1ccccc1-c1nnc(-c2ccc(C)o2)n1-c1c(OC)cccc1OC` [Example 58, Methyl 2-[4-(2,6-dimethoxyphenyl)-5-(5-methyl-2-furyl)-4H-1,2,4-triazol-3-yl]benzoate] belongs 2800 nM; to `COc1cccc(OC)c1-n1c(OCC(=O)O)nnc1-c1ccc(C)o1` [Example 88, {[4-(2,6-Dimethoxyphenyl)-5-(5-methylfuran-2-yl)-4H-1,2,4-triazol-3-yl]oxy}acetic acid], 35 nM; to `COC(=O)[C@@H]1C[C@@H](O)CN1C(=O)/C=C/c1nnc(-c2ccc(C)o2)n1-c1c(OC)cccc1OC` [Example 91, Methyl (4R)-1-{(2E)-3-[4-(2,6-dimethoxyphenyl)-5-(5-methylfuran-2-yl)-4H-1,2,4-triazol-3-yl]prop-2-enoyl}-4-hydroxy-L-prolinate], 351 nM.
`COc1cccc(OC)c1-n1c(SCc2nnn[nH]2)nnc1-c1ccc(C)o1` [Example 74, 5-({[4-(2,6-Dimethoxyphenyl)-5-(5-methylfuran-2-yl)-4H-1,2,4-triazol-3-yl]sulfanyl}methyl)-1H-tetrazole] yielded an EC50 of 98 nM.
With `COc1cccc(OC)c1-n1c(/C=C/C(=O)O)nnc1-c1ccc(C)o1` [Example 9, (2E)-3-[4-(2,6-Dimethoxyphenyl)-5-(5-methylfuran-2-yl)-4H-1,2,4-triazol-3-yl]prop-2-enoic acid], the midpoint of the response, the EC50, lay at 18 nM.
Next, `COc1cccc(OC)c1-n1c(/C=C/C#N)nnc1-c1ccc(C)o1` [Example 53, (2E)-3-[4-(2,6-Dimethoxyphenyl)-5-(5-methylfuran-2-yl)-4H-1,2,4-triazol-3-yl]prop-2-enenitrile]: 2650 nM; `CCOC(=O)C(=O)NCc1nnc(-c2ccc(C)o2)n1-c1c(OC)cccc1OC` [Example 97, Ethyl ({[4-(2,6-dimethoxyphenyl)-5-(5-methylfuran-2-yl)-4H-1,2,4-triazol-3-yl]methyl}amino)(oxo)acetate]: 273 nM.
To `COc1cccc(OC)c1-n1c(SCC(=O)O)nnc1C1CCCC1` [Example 33, {[5-Cyclopentyl-4-(2,6-dimethoxyphenyl)-4H-1,2,4-triazol-3-yl]sulfanyl}acetic acid] belongs 2440 nM; to `COc1cccc(OC)c1-n1c(/C=C/C(=O)N(C)C)nnc1-c1ccc(C)o1` [Example 21, (2E)-3-[4-(2,6-Dimethoxyphenyl)-5-(5-methylfuran-2-yl)-4H-1,2,4-triazol-3-yl]-N,N-dimethylprop-2-enamide], 539 nM.
`CCCC(Sc1nnc(-c2ccc(C)o2)n1-c1c(OC)cccc1OC)C(=O)O` (stereo not shown) [Example 42, 2-{[4-(2,6-Dimethoxyphenyl)-5-(5-methylfuran-2-yl)-4H-1,2,4-triazol-3-yl]sulfanyl}pentanoic acid] came in with an EC50 of 12 nM.
To `COc1cccc(OC)c1-n1c(CN(C(=O)c2ccc(C)cc2)C(=O)c2ccc(C)cc2)nnc1-c1ccc(C)o1` [Example 72, N-{[4-(2,6-Dimethoxyphenyl)-5-(5-methylfuran-2-yl)-4H-1,2,4-triazol-3-yl]methyl}-4-methyl-N-(4-methylbenzoyl)benzamide] belongs 95 nM; to `COc1cccc(OC)c1-n1c(SCC(=O)O)cnc1-c1ccc(C)o1` [Example 60, {[1-(2,6-Dimethoxyphenyl)-2-(5-methylfuran-2-yl)-1H-imidazol-5-yl]sulfanyl}acetic acid], 1300 nM.
Next, `CCc1cccc(CC)c1-n1c(SCC(=O)O)nnc1-c1ccc(C)o1` [Example 31, {[4-(2,6-Diethylphenyl)-5-(5-methylfuran-2-yl)-4H-1,2,4-triazol-3-yl]sulfanyl}acetic acid]: 174 nM; `COc1cccc(OC)c1-n1c(SCc2cc[nH]c(=O)c2)nnc1-c1ccc(C)o1` [Example 18, 4-({[4-(2,6-Dimethoxyphenyl)-5-(5-methylfuran-2-yl)-4H-1,2,4-triazol-3-yl]sulfanyl}methyl)pyridin-2(1H)-one]: 561 nM; `COc1cccc(OC)c1-n1c(CC#N)nnc1-c1ccc(C)o1` [Example 73, [4-(2,6-Dimethoxyphenyl)-5-(5-methylfuran-2-yl)-4H-1,2,4-triazol-3-yl]acetonitrile]: 1020 nM.
